Values belong to the compound of their own block, whether it stands above or below them.
Key:
[1] = Stability of m^5U crystal forms left in air at room temperature; type: physicochemical
Excerpt: The only previously known crystalline form of m^5U is its hemihydrate crystal, designated form I, which was crystallized exclusively by evaporation from the supersaturated aqueous solutions. By using DAFP-1 as an additive, remarkably, we were able to control the crystallization of m^5U and discover a new, less thermodynamically and kinetically preferred form, m^5U dihydrate crystal, designated form II. Forms I and II crystals are readily distinguished from each other by their morphology and stability. Form I crystals are needle-like in appearance (FIG. 16(a)) and there was no change (in the appearance, single crystal X-ray diffraction pattern, or DSC profile) of the crystals after being left in air at room temperature for more than 24 months. Form II crystals are block-shaped (FIG. 16(b)) and became white opaque powders/blocks in 2 months. The resulting solids were not suitable for single-crystal X-ray diffraction.

[2] = DSC thermodynamic stability analysis of m^5U forms; type: physicochemical
Protocol: Thermodynamic Stability Analysis. Both forms of m^5U were analyzed by DSC (FIG. 20). […] The first endotherm associated with water loss is at 139.07° C., whereas the second endotherm ascribed to the melting is at 185.65° C. […] Form II starts losing water and then melts at relatively lower temperatures than those of form I. The enthalpy profiles for both forms are compared in FIG. 21.
All experiments were performed with a DSC 1 (Mettler Toledo, Ohio). An indium standard (Mettler Toledo, Ohio) was used to calibrate the instrument. Samples weighed 3-4 mg and were hermetically encapsulated in standard aluminum sample pans with pierced lids to release any pressure build-up during the experiments. The samples were heated from 25 to 200° C. at a rate of 5° C./min.

[3] = Crystallization and crystallization kinetics of m^5U form I and form II from supersaturated solution; type: physicochemical; conditions: for Day the crystallization completes / Day the crystallization starts: 595 mM m^5U, form I in absence of DAFP-1, form II in presence of DAFP-1 (additive/m^5U 5×10^−6); for Average crystal growth rate: estimated from mass increase of crystals, form I without, form II with DAFP-1; for Crystal morphology of the form: optical micrographs
Protocol: Supersaturated m^5U aqueous solutions (0.6 M) were made at 30° C. and filtered as soon as possible. Crystals were not grown after the temperature dropped to room temperature for a few days. On day 1, to each sample vial was added 600 μL of 0.6 M m^5U solution, and then 5 μL of water or DAFP solution were added into the vial. The vials were gently swirled after the additions. The resulting m^5U concentration was 595 mM in each vial and additive/m^5U molar ratios (×10^−6) were either 0 or 5. The sample vials were left open in the air at room temperature and three observations at least were recorded per day (every 8 hours) until the solutions in all the vials were dry. The above experiments were repeated five times. Optical micrographs were taken under Nikon SMZ800 microscope with a Nikon Coolpix 5400 when the crystallization completed. Under the above conditions, only form I crystalline m^5U was able to grow in the absence of DAFP-1; however, in the presence of DAFP-1, form II crystalline m^5U was grown exclusively. The kinetics of crystallization of m^5U form I and form II, respectively, was estimated based on the rate of the weight of the occurring crystals and the initial weight of m^5U in the specific vial. All the liquid in the vial was collected gently and the weight of the vial or the vial with crystals was measured. After the measurement, the collected liquid was put back into the vial and the crystallization continued. The weights were measured on an Ohaus Discovery semi-micro analytical balance at 9 am every day until the crystallization finished. The experiments were repeated on three vials and the average values were reported.

[4] = Crystal growth of I by evaporation of aqueous solution, no seed crystals, with polypeptide additives; type: physicochemical
Protocol: (§1) We obtained the crystals of m^5U, C, and I, respectively, by evaporation of their aqueous solutions at room temperature. m^5U was known to be crystallized from aqueous ethanol solutions. […] On day 1, each sample vial was first added 600 μL of 400 mM m^5U solution. Then 20 μL of water or polypeptide solutions at certain concentrations were added into each vial. The final m^5U concentration was 387 mM in each vial. The additive/m^5U molar ratios (×10^−5) were varied from 0, 0.04, 0.4, 1.0, 1.2, 3.0, 4.0, 7.8, and 9.0. The vials were gently swirled after the addition and were left open in the air at the room temperature. At least three observations were recorded per day (every 8 hours) until the solutions in all the vials were dry. The experiments were repeated five times (Table 1).
(§2) In previous reports, crystals of C were prepared by evaporating of its aqueous ethanol solutions. Here we obtained C crystals by evaporation of its aqueous solution. […] By slowly evaporating its aqueous solution at 20° C., the pure α-form I crystals were obtained. The experimental procedures for C and I were similar to those described above for m^5U, while the concentrations of C and I solutions were 252 mM and 92 mM, respectively, in each sample vial on day 1 and the additive/C molar ratios (×10^−5) were varied from 0, 0.04, 0.4, 1.0, 1.2, 3.0, 4.0, 7.9, and 10.0 and the additive/I molar ratios (×10^−5) were varied from 0, 0.05, 0.5, 1.1, 2.2, 4.4, 8.1, 10.8, and 21.7. Photos of the vials were taken with a Canon EOS 30D camera during the crystallization process and when the process finished. Optical micrographs were taken under Nikon SMZ800 microscope with a Nikon Coolpix 5400 when the crystallization completed. […]
(§3) Powder X-ray diffraction (PXRD) data were collected at room temperature on a Rigaku Mini Flex II desktop diffractometer using Cu Kα radiation (30 kV, 15 mA) with a 2θ range of 5°-50°, a step size of 0.010°, and a step time of 2 s. […] The same amount of the resulting powders was then mounted and analyzed on a front loading sample holder.

[5] = Crystal growth of m^5U by evaporation of aqueous solution, no seed crystals, with polypeptide additives; type: physicochemical
Protocol: as §1
All the resulting solids were sent to X-ray crystallography laboratory at the Beckman Institute of California Institute of Technology for analysis. The qualities of the solids for single crystal X-ray diffraction were determined (Table 1). […] The resolution of the data was improved compared with that of previously reported data of m^5U. The crystallographic data of m^5U have been deposited in the Cambridge Database (CCDC) and the CCDC deposit number is 835399.
Powder X-ray diffraction (PXRD) data were collected at room temperature on a Rigaku Mini Flex II desktop diffractometer using Cu Kα radiation (30 kV, 15 mA) with a 2θ range of 5°-50°, a step size of 0.010°, and a step time of 2 s. Samples were lightly ground by hand using a mortar and pestle. The same amount of the resulting powders was then mounted and analyzed on a front loading sample holder.
Different amounts of DAFP-1 were added directly to m^5U solution to determine the critical ratio of DAFP-1/m^5U.

[6] = copper sulfate pentahydrate aqueous solution, no additive
Protocol: To further test the effect of AFP on different types of compounds, we tested copper sulfate pentahydrate. The crystal grows from copper sulfate pentahydrate aqueous solutions at room temperature. Seventy milligrams of copper sulfate pentahydrate were dissolved in one milliliter of deionized, milli-Q water. The solution was filtered and left in the air for evaporation. In the presence AFPs, the conditions were all the same except DAFP-1 was added to the solution at the molar ratio of 10^−7 to copper sulfate.

[7] = Crystal growth of C by evaporation of aqueous solution, no seed crystals, with polypeptide additives; type: physicochemical
Protocol: as §1, §2, §3

[8] = Crystallization of trehalose dihydrate by diffusing ethanol, with DAFP-1; type: physicochemical; conditions: without additive
Excerpt: Similarly, we crystallized trehalose dihydrate crystals by diffusing ethanol into the aqueous ethanol solution of trehalose directly. The protein:trehalose molar ratio (×10^−5) was 9.0 in FIG. 24(b) The crystals formed in the presence of DAFP-1 show a dramatic decrease in size as compared to the crystals obtained without additive.

[9] = optical micrographs, no seed crystals, alone or in the presence of the named additive

Crystal quality (suitableness of resulting solids for single crystal x-ray diffraction) ([5]; 387 mM m^5U, polypeptide 0 μM): Yes
Induction time (day of first appearance of solid) ([5]; 387 mM m^5U, polypeptide 0 μM, no seed crystals): 6 days
Morphology of finally achieved m^5U solids [5, 9]: Needle-like orthorhombic
Compound: Cc1cn([C@@H]2O[C@H](CO)[C@@H](O)[C@H]2O)c(=O)[nH]c1=O [m^5U, 5-methyluridine]

Time until crystals became white opaque powders/blocks ([1]; in air at room temperature): 2 months
Day the crystallization completes [3]: 15 days
Day the crystallization starts [3]: 6 days
Average crystal growth rate [3]: 10.5 % per day
Crystal morphology of the form [3]: block-shaped
Compound: Cc1cn([C@@H]2O[C@H](CO)[C@@H](O)[C@H]2O)c(=O)[nH]c1=O [form II, 5-methyluridine]

Crystal quality (suitableness of resulting solids for single crystal x-ray diffraction) ([7]; 252 mM C, polypeptide 0 μM): Yes
Induction time (day of first appearance of solid) ([7]; 252 mM C, polypeptide 0 μM, no seed crystals): 13 days
Morphology of final achieved C solids [7, 9]: needle-like
Compound: Nc1ccn([C@@H]2O[C@H](CO)[C@@H](O)[C@H]2O)c(=O)n1 [C, cytidine]

Size of trehalose dihydrate crystals [8]: 1-1.5 mm
Compound: OC[C@H]1O[C@H](O[C@H]2O[C@H](CO)[C@@H](O)[C@H](O)[C@H]2O)[C@H](O)[C@@H](O)[C@@H]1O [trehalose dihydrate]

Continued, compound first:

Compound: Cc1cn([C@@H]2O[C@H](CO)[C@@H](O)[C@H]2O)c(=O)[nH]c1=O [form I, 5-methyluridine]
Time crystals were stable in air ([1]; in air): at least 2 years
Time without change (appearance, single crystal X-ray diffraction pattern, DSC profile) of the crystals ([1]; left in air at room temperature): more than 24 months
Relative thermodynamic stability of the forms ([2]; DSC enthalpy profiles): more thermodynamically stable
DSC endotherm associated with water loss ([2]; heated 25 to 200° C. at 5° C./min): 139.07 °C
Day the crystallization completes [3]: 9 days
Day the crystallization starts [3]: 3 days
Average crystal growth rate [3]: 13.3 % per day
Crystal morphology of the form [3]: needle-like

Compound: O=c1[nH]cnc2c1ncn2[C@@H]1O[C@H](CO)[C@@H](O)[C@H]1O [I, inosine]
Crystal quality (suitableness of resulting solids for single crystal x-ray diffraction) ([4]; 92 mM I, polypeptide 0 μM): Yes
Induction time (day of first appearance of solid) ([4]; 92 mM I, polypeptide 0 μM, no seed crystals): 5 days
Morphology of final achieved I solids [4, 9]: hair-like

Compound: O.O.O.O.O.O=S(=O)([O-])[O-].[Cu+2] [copper sulfate pentahydrate]
Appearance of the crystal (time) [6]: 7 days

From patent publication US9394327B1, “Nucleoside crystals, crystal nucleation and growth control with antifreeze proteins” (The Trustees of California State University, priority 2013, dated 2016)
